According to publication PMC5736559, “Dual blockade of the lipid kinase PIP4Ks and mitotic pathways leads to cancer-selective lethality” (Nature Communications, 2017):
Blank lines part the entries; values can stand above or below the compound they belong to.

How the values were obtained:
PIP4K2A = PIP4K2A (Homo sapiens, UniProt P48426); experiment: ADP-Glo kinase assay with purified PIP4K2A and PI([…])P; format: biochemical
NUGC3 = experiment: cells; design: MTT cell viability/proliferation assay, absorbance 540 minus 660 nm, GI50 by non-linear regression; conditions: Homo sapiens, NUGC-3; cancer cells, 72 h MTT
Procedure: (§1) Cells were plated in 96-well microplates on day 0, and a131 was added to each well on day 1 at a range of different concentrations (from 0.1 to 40 μM) in triplicate. After 3 days of culture, the number of viable cells was determined using MTT cell proliferation assays by adding thiazolyl blue tetrazolium bromide (MTT reagent, Invitrogen) at a concentration of 0.5 mg/ml to each well and incubating for 4 h at 37 °C. The medium was then removed, and the blue dye remaining in each well was dissolved in DMSO by mixing with a microplate mixer. The absorbance of each well was measured at 540 and 660 nm using a microplate reader (Benchmark plus, Bio-Rad). Optical density (OD) values were calculated by subtracting the absorbance at 660 nm from the absorbance at 540 nm. Mean OD values from control cells containing only DMSO-treated wells were set as 100% viable. […] Mean values with ± standard deviation (S.D.) are shown (n = 3). c, d Normal and transformed BJ cells were treated with a131 at 2.5 μM for 48 h. c FACS analysis using BrdU and PI double staining of the indicated cells. Percentages of BrdU-positive (S) population indicating cell cycle arrest and subG1 (<2N) population indicating cell death are shown. Representative FACS analysis shown (n = 3). d Immunoblot analysis of cleaved PARP and caspase-3 (Cas-3) indicating a131-induced apoptosis in transformed BJ cells (lanes 5, 6), but not normal counterparts (lanes 2, 3). Representative immunoblots shown (n = 3). e MTT assay of human normal and cancer cell lines treated with a131 for 72 h (n = 3). Mean concentration values for a131 to achieve 50% growth inhibition (GI50) in each cell line are plotted with ± S.D. f FACS analysis of a series of engineered BJ-derived fibroblasts treated with a131 at 5 µM for 48 h. Mean values of subG1 (<2N) population ± S.D. are shown (n > 3). g, h Normal and transformed BJ cells stably expressing GFP-histone H2B were treated with a131 at 2.5 μM for 32 h prior to fixation. g Immunofluorescence analysis with representative images (n = 3). h Quantification of cells (n > 100 per condition) with the indicated centrosome numbers. Mean values ± S.D. are shown (n = 3). i Mice bearing established tumor xenografts were treated orally (PO) or intraperitoneally (IP) twice daily with the indicated doses of a131 or its derivative b5. Tumor volumes were calculated periodically as indicated. Paclitaxel (PTX) was administered intravenously for twice every 4 days. Mean tumor volumes ± S.D. from six mice are shown. Two-way ANOVA was performed to determine statistical significance compared to vehicle control. j, k TUNEL staining (j) or immu

A549 = experiment: cells; design: MTT cell viability/proliferation assay, absorbance 540 minus 660 nm, GI50 by non-linear regression; conditions: Homo sapiens, A549; cancer cells, 72 h MTT
Procedure: as §1

HGC27 = experiment: cells; design: MTT cell viability/proliferation assay, absorbance 540 minus 660 nm, GI50 by non-linear regression; conditions: Homo sapiens, HGC-27; cancer cells, 72 h MTT
Procedure: as §1

NCC24 = experiment: cells; design: MTT cell viability/proliferation assay, absorbance 540 minus 660 nm, GI50 by non-linear regression; conditions: cancer cells, 72 h MTT
Procedure: as §1

IM95 = experiment: cells; design: MTT cell viability/proliferation assay, absorbance 540 minus 660 nm, GI50 by non-linear regression; conditions: Homo sapiens, IM95; cancer cells, 72 h MTT
Procedure: as §1

SNU1 = experiment: cells; design: MTT cell viability/proliferation assay, absorbance 540 minus 660 nm, GI50 by non-linear regression; conditions: Homo sapiens, SNU1; cancer cells, 72 h MTT
Procedure: as §1

SNU1750 = experiment: cells; design: MTT cell viability/proliferation assay, absorbance 540 minus 660 nm, GI50 by non-linear regression; conditions: cancer cells, 72 h MTT
Procedure: as §1

Huh7 = experiment: cells; design: MTT cell viability/proliferation assay, absorbance 540 minus 660 nm, GI50 by non-linear regression; conditions: Homo sapiens, Huh-7; cancer cells, 72 h MTT
Procedure: as §1

HCT116 = experiment: cells; design: MTT cell viability/proliferation assay, absorbance 540 minus 660 nm, GI50 by non-linear regression; conditions: Homo sapiens, HCT-116; cancer cells, 72 h MTT
Procedure: as §1

MDA-MB-231 = experiment: cells; design: MTT cell viability/proliferation assay, absorbance 540 minus 660 nm, GI50 by non-linear regression; conditions: Homo sapiens, MDA-MB-231; cancer cells, 72 h MTT
Procedure: as §1

SNU449 = experiment: cells; design: MTT cell viability/proliferation assay, absorbance 540 minus 660 nm, GI50 by non-linear regression; conditions: Homo sapiens, SNU-449; cancer cells, 72 h MTT
Procedure: as §1

SNU-16 = experiment: cells; design: MTT cell viability/proliferation assay, absorbance 540 minus 660 nm, GI50 by non-linear regression; conditions: Homo sapiens, SNU-16; cancer cells, 72 h MTT
Procedure: as §1

HT29 = experiment: cells; design: MTT cell viability/proliferation assay, absorbance 540 minus 660 nm, GI50 by non-linear regression; conditions: Homo sapiens, HT-29; cancer cells, 72 h MTT
Procedure: as §1

HCT15 = experiment: cells; design: MTT cell viability/proliferation assay, absorbance 540 minus 660 nm, GI50 by non-linear regression; conditions: Homo sapiens, HCT-15; cancer cells, 72 h MTT
Procedure: as §1

NCC59 = experiment: cells; design: MTT cell viability/proliferation assay, absorbance 540 minus 660 nm, GI50 by non-linear regression; conditions: cancer cells, 72 h MTT
Procedure: as §1

AGS = experiment: cells; design: MTT cell viability/proliferation assay, absorbance 540 minus 660 nm, GI50 by non-linear regression; conditions: Homo sapiens, AGS; cancer cells, 72 h MTT
Procedure: as §1

SNU620 = experiment: cells; design: MTT cell viability/proliferation assay, absorbance 540 minus 660 nm, GI50 by non-linear regression; conditions: SNU620; cancer cells, 72 h MTT
Procedure: as §1

MCF7 = experiment: cells; design: MTT cell viability/proliferation assay, absorbance 540 minus 660 nm, GI50 by non-linear regression; conditions: Homo sapiens, MCF7; cancer cells, 72 h MTT
Procedure: as §1

HeLa = experiment: cells; design: MTT cell viability/proliferation assay, absorbance 540 minus 660 nm, GI50 by non-linear regression; conditions: Homo sapiens, HeLa; cancer cells, 72 h MTT
Procedure: as §1

Ferrochelatase = molecular target: T1, Ferrochelatase (Homo sapiens, UniProt P22830); experiment: MS-CETSA thermal shift in normal BJ cell lysate, […] compound (off-target hit); format: cell-based
T1 construct: gene FECH
T1 sequence (P22830 55-423): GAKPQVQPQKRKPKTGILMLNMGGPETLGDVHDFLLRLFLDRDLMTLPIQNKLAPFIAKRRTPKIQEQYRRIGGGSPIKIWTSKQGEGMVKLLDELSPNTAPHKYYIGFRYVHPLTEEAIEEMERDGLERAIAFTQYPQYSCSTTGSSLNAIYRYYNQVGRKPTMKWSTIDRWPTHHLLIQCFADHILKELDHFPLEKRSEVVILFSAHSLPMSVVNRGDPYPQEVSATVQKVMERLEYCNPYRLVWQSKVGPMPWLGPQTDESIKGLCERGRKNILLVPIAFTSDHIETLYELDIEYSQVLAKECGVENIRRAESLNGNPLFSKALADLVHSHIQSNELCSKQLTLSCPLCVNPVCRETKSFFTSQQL

PIP4K2C = PIP4K2C (Homo sapiens, UniProt Q8TBX8); experiment: MS-CETSA thermal shift in normal BJ cell lysate, […] compound; format: cell-based
Chain of PIP4K2C (Q8TBX8 2-421): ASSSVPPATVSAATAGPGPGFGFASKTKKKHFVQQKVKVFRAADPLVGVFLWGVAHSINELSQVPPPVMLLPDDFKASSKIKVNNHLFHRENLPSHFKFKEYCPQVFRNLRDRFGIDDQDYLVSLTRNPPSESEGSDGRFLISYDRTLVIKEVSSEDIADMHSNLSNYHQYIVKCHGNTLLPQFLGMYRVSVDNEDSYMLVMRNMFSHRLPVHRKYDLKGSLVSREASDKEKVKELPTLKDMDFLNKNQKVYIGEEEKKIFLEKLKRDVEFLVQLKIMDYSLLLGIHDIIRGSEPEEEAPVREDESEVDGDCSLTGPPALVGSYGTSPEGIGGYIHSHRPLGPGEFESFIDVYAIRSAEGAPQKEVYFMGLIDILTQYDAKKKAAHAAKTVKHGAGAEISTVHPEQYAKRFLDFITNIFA

Chain of PIP4K2A (P48426 2-406): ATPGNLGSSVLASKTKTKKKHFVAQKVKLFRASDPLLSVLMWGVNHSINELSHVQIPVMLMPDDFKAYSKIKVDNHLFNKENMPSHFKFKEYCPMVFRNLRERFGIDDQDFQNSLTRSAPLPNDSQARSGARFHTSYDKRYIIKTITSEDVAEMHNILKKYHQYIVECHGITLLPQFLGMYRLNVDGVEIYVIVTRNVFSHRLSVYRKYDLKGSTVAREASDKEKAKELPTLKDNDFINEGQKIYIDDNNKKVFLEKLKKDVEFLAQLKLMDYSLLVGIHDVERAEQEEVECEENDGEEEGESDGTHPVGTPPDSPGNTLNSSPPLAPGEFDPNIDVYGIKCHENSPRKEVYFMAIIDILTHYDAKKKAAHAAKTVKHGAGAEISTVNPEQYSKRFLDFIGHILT

Compound: COc1cc(/C=C(\C#N)C(=O)c2ccc(O)c(O)c2)cc(I)c1O [I-OMe-AG-538]
- IC50 (PIP4K2A): 2.1 µM

- GI50 (A549): 1.97 µM
- GI50 (SNU1): 0.919 µM
- GI50 (SNU1750): 0.747 µM
- GI50 (Huh7): 1.18 µM
- GI50 (HCT116): 1.84 µM
- GI50 (MDA-MB-231): 1.14 µM
- GI50 (SNU449): 2.27 µM
- GI50 (SNU-16): 0.982 µM
- GI50 (HT29): 0.915 µM
- GI50 (HCT15): 0.545 µM
- GI50 (AGS): 1.13 µM
- GI50 (SNU620): 0.982 µM
- GI50 (MCF7): 1.24 µM
- GI50 (HeLa): 1.44 µM
Compound: N#C/C(=C\c1cccc2cnccc12)c1c[nH]c2ccccc12 [a131]
- GI50 (NUGC3): 1.04 µM
- GI50 (HGC27): 1.17 µM
- GI50 (NCC24): 1.23 µM
- GI50 (IM95): 1.04 µM
- GI50 (NCC59): 0.944 µM
- MS-CETSA thermal shift in normal BJ cell lysate, 100 μM compound (off-target hit) (Ferrochelatase): Ferrochelatase in a131 and coproporphyrinogen-III oxidase in a166 were identified as prominent hits
- MS-CETSA thermal shift in normal BJ cell lysate, 100 μM compound (PIP4K2C): two out of the three family members (PIP4K2A and 2C) in a131
